Test results reported in ChEMBL document CHEMBL1201862, “PubChem BioAssay data set” (2004).
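Where inhibition never reached the appropriate level, the endpoint shown equals the highest concentration tested. Otherwise, values were interpolated linearly from a five-concentration, 48-hour dose response in 96-well plates. GI50: concentration for 50% inhibition of growth.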 Activity calls are given as the source filed them. No stated cut-off is given here; in the data, active = GI50 up to about 1.1 µM and inactive = higher.

Tests used:
Experiment in all cases: NCI tumour cell line growth inhibition, 48 h
HL-60 = tested on: HL-60
RXF 393 = tested on: RXF 393
A549 = tested on: A549
HOP-92 = tested on: HOP-92
Hs-578T = tested on: Hs-578T
LOX IMVI = tested on: LOX IMVI
RPMI-8226 = tested on: RPMI-8226
HOP-62 = tested on: HOP-62
SK-MEL-28 = tested on: SK-MEL-28
A498 = tested on: A498
SNB-75 = tested on: SNB-75
SN12C = tested on: SN12C
T47D = tested on: T47D
UACC-257 = tested on: UACC-257
SF-268 = tested on: SF-268
OVCAR-3 = tested on: OVCAR-3
Malme-3M = tested on: Malme-3M
MDA-MB-435 = tested on: MDA-MB-435
MDA-MB-231 = tested on: MDA-MB-231
786-0 = tested on: 786-0

In the case of `CC(C)CSCC1OC(n2cnc3c(N)nccc32)C(O)C1O` (stereo not given), the GI50 (HL-60) is reported as > 100 µM (inactive), the GI50 (RXF 393) is reported as > 52 µM (inactive) and the GI50 (A549) is reported as > 100 µM (inactive). The GI50 (HOP-92) was > 72.9 µM (inactive), the GI50 (Hs-578T) was > 72.1 µM (inactive) and the GI50 (LOX IMVI) was > 100 µM (inactive). The GI50 (RPMI-8226) was > 67 µM (inactive), the GI50 (HOP-62) was > 100 µM (inactive) and the GI50 (SK-MEL-28) was > 100 µM (inactive). The GI50 (A498) was > 100 µM (inactive), the GI50 (SNB-75) was > 100 µM (inactive) and the GI50 (SN12C) was > 100 µM (inactive). For the same compound, the GI50 (T47D) was > 100 µM (inactive), the GI50 (UACC-257) was > 85.3 µM (inactive) and the GI50 (SF-268) was > 100 µM (inactive). The GI50 (OVCAR-3) was > 100 µM (inactive), the GI50 (Malme-3M) was > 100 µM (inactive) and the GI50 (MDA-MB-435) was > 100 µM (inactive). For the same compound, the GI50 (MDA-MB-231) was > 100 µM (inactive) and the GI50 (786-0) was > 100 µM (inactive).

With `CCC(C)N1CN(c2ccccc2)C2(CCN(CCCC3(c4ccc(F)cc4)OCCO3)CC2)C1=O` (stereo not given) the GI50 (HL-60) was 6.47 µM (inactive), the GI50 (RXF 393) was 13 µM (inactive) and the GI50 (A549) was 7.73 µM (inactive). For the same compound, the GI50 (HOP-92) was < 0.01 µM (active), the GI50 (Hs-578T) was 6.15 µM (inactive) and the GI50 (LOX IMVI) was 7.73 µM (inactive). The GI50 (RPMI-8226) was 1.89 µM (inactive), the GI50 (HOP-62) was 13.2 µM (inactive) and the GI50 (SK-MEL-28) was 17.6 µM (inactive). The GI50 (A498) was 22.2 µM (inactive), the GI50 (SNB-75) was 6.05 µM (inactive) and the GI50 (SN12C) was 7.24 µM (inactive). The GI50 (T47D) was 8.28 µM (inactive), the GI50 (UACC-257) was 1.98 µM (inactive) and the GI50 (SF-268) was 17.7 µM (inactive). The GI50 (OVCAR-3) was 14.7 µM (inactive), the GI50 (Malme-3M) was 5.19 µM (inactive) and the GI50 (MDA-MB-435) was 18.8 µM (inactive). The GI50 (MDA-MB-231) was 13.4 µM (inactive) and the GI50 (786-0) was 5.53 µM (inactive).

In the case of `COc1ccc(-n2c(Cn3nnc(-c4cccnc4)n3)nn(C3OC(COC(=O)c4ccccc4)C(OC(=O)c4ccccc4)C3OC(=O)c3ccccc3)c2=S)cc1` (stereo not given), the GI50 (HL-60) is reported as > 100 µM (inactive), the GI50 (RXF 393) is reported as > 100 µM (inactive) and the GI50 (A549) is reported as > 100 µM (inactive). The GI50 (HOP-92) was > 100 µM (inactive), the GI50 (Hs-578T) was > 100 µM (inactive) and the GI50 (LOX IMVI) was > 100 µM (inactive). For the same compound, the GI50 (RPMI-8226) was > 100 µM (inactive), the GI50 (HOP-62) was > 100 µM (inactive) and the GI50 (SK-MEL-28) was > 100 µM (inactive). For the same compound, the GI50 (A498) was > 100 µM (inactive), the GI50 (SNB-75) was > 100 µM (inactive) and the GI50 (SN12C) was > 100 µM (inactive). For the same compound, the GI50 (T47D) was > 100 µM (inactive), the GI50 (UACC-257) was > 100 µM (inactive) and the GI50 (SF-268) was > 100 µM (inactive). For the same compound, the GI50 (OVCAR-3) was > 100 µM (inactive), the GI50 (Malme-3M) was > 100 µM (inactive) and the GI50 (MDA-MB-435) was > 100 µM (inactive). For the same compound, the GI50 (MDA-MB-231) was 49 µM (inactive) and the GI50 (786-0) was > 100 µM (inactive).

In the case of `O=c1[nH]c2cc3cccnc3c(Cl)c2nc1C(F)(F)F`, the GI50 (HL-60) is reported as 32.9 µM (inactive), the GI50 (RXF 393) is reported as 46.7 µM (inactive) and the GI50 (A549) is reported as 41.4 µM (inactive). The GI50 (HOP-92) was 7.16 µM (inactive), the GI50 (Hs-578T) was 58.1 µM (inactive) and the GI50 (LOX IMVI) was 32.4 µM (inactive). The GI50 (RPMI-8226) was 26.5 µM (inactive), the GI50 (HOP-62) was 29.3 µM (inactive) and the GI50 (SK-MEL-28) was 62.8 µM (inactive). For the same compound, the GI50 (A498) was 19.2 µM (inactive), the GI50 (SNB-75) was 27.5 µM (inactive) and the GI50 (SN12C) was 75.5 µM (inactive). For the same compound, the GI50 (T47D) was 33.6 µM (inactive), the GI50 (UACC-257) was 27.1 µM (inactive) and the GI50 (SF-268) was 60.7 µM (inactive). For the same compound, the GI50 (OVCAR-3) was 34.4 µM (inactive), the GI50 (Malme-3M) was 77.8 µM (inactive) and the GI50 (MDA-MB-435) was 33.7 µM (inactive). For the same compound, the GI50 (MDA-MB-231) was 30.3 µM (inactive) and the GI50 (786-0) was 72.4 µM (inactive).

In the case of `CCCCCCCCCCCCCCCC[N+](C)(C)CCl`, the GI50 (HL-60) is reported as 0.964 µM (active), the GI50 (RXF 393) is reported as 1.32 µM (inactive) and the GI50 (A549) is reported as 5 µM (inactive). The GI50 (HOP-92) was 1.17 µM (inactive), the GI50 (Hs-578T) was 1.85 µM (inactive) and the GI50 (LOX IMVI) was 1.51 µM (inactive). The GI50 (RPMI-8226) was 1.76 µM (inactive), the GI50 (HOP-62) was 2.29 µM (inactive) and the GI50 (SK-MEL-28) was 5.19 µM (inactive). For the same compound, the GI50 (A498) was 8.67 µM (inactive), the GI50 (SNB-75) was 1.86 µM (inactive) and the GI50 (SN12C) was 3.19 µM (inactive). The GI50 (T47D) was 3.57 µM (inactive), the GI50 (UACC-257) was 4.71 µM (inactive) and the GI50 (SF-268) was 2.74 µM (inactive). The GI50 (OVCAR-3) was 3.03 µM (inactive), the GI50 (Malme-3M) was 2.65 µM (inactive) and the GI50 (MDA-MB-435) was 3.07 µM (inactive). For the same compound, the GI50 (MDA-MB-231) was 2.02 µM (inactive) and the GI50 (786-0) was 1.55 µM (inactive).
